Experimental data reported in paper PMC7217877, “N-AS-triggered SPMs are direct regulators of microglia in a model of Alzheimer’s disease” (Nature Communications, 2020).
Changes are numbered by the printed parent chain. Where “and” joins values, the source holds several entries; their conditions need not be identical. Equal entries are not always repeated.

Legend:
COX2 T564A = molecular target: T1, COX2 T564A (Homo sapiens, UniProt P35354, T564A); assay: in vitro [14C] acetylation assay of purified COX2; assay type: biochemical; set-up: unit not given here; details: replicates, listed as C14 N-AS
T1 construct: His (N); made in house
T1 sequence (P35354 18-604 T564A): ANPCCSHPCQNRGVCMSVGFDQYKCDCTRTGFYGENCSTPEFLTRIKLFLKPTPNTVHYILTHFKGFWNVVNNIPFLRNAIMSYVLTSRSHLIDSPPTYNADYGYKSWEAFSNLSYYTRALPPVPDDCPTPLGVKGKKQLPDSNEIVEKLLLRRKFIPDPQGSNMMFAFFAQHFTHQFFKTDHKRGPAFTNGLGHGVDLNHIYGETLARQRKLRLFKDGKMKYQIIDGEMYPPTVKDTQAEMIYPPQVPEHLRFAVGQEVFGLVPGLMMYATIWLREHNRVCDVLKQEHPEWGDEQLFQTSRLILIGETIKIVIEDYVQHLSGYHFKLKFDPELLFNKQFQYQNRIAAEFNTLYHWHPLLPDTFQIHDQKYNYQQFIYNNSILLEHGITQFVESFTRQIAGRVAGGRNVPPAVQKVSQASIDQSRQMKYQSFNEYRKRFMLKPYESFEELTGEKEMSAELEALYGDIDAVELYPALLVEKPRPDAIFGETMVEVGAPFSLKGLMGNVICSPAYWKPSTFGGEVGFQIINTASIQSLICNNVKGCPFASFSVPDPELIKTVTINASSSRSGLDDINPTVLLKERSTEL
From the text: Single point mutations in SphK1 (R56A, R57A, R24A, R185A, D178A, and F192A) and COX2 (S565A, N181A, T564A, and S567A) were generated using the In-Fusion Cloning Kits (Clontech) and ORF cDNA expression plasmids of human SphK1 and COX2 gene (Sino Biological Inc, HG15679-NH and HG12036-NH), according to the manufacturer’s instructions. The forward and reverse primers described in Supplementary Table 4. The SphK1 WT, SphK1 mutants, COX2 WT, and COX2 mutant plasmids were transformed in the One shot TOP 10 competent cell (Invitrogen). The bacteria were grown in Luria-Bertani (LB, Invitrogen) plates supplemented with 50 μg ml^−1 kanamycin (Sigma-Aldrich) at 37 °C. The bacterial cell pellets were resuspended in lysis buffer containing 20 mM sodium phosphate (GE Healthcare), 500 mM NaCl (GE Healthcare), 20 mM imidazole (pH 7.4) (GE Healthcare), 0.2 mg ml^−1 lysozyme (Sigma-Aldrich), 20 μg ml^−1 DNase I (Roche), 1 mM MgCl2 (Sigma-Aldrich), and 1 mM PMSF (Sigma-Aldrich) before being lysed by sonication and clarified by centrifugation at 15,493×g for 10 min. […]
Acetylation assays were performed according to previously described procedures with minor modifications. […] Acetylated COX2 proteins bound to the beads were analyzed using a Tri-Carb 3110TR liquid scintillation counter (Perkin-Elmer).

COX2 = molecular target: T2, COX2 (Homo sapiens, UniProt P35354); assay: S565 acetylation of recombinant COX2 (ac-S565 western blot, LC-MS/MS of acetylated site); assay type: biochemical; set-up: purchased LSBio LS-G21094; details: 2 mM; vs naive and aspirin-treated COX2
T2 sequence (P35354 18-604): T1 sequence (P35354 18-604 T564A) with A547T
Procedure: To identify the acetylation site of COX2, N-AS (Sigma-Aldrich, 01912)-treated COX2 enzymes (LSBio, LS-G21094) were immediately precipitated with trichroloacetic acid (Merck) and dried. The dried extract was resuspended in 10 μl of 5 M Urea solution and incubated with 1 μg sequencing-grade modified porcine trypsin (Promega) in 0.1 M ammonium bicarbonate buffer at 37 °C for 16 h. The sample was then treated with 1 M DTT (GE Healthcare) at RT for 1 h, followed by alkylation with 1 M iodoacetamide (Sigma-Aldrich) for 1 h. For sequencing, the protein samples were loaded onto a ZORBAX 300SB-C18 column (3.5 μm, 1.0 mm i.d. × 150 mm, Agilent). The column was placed in-line with an UltiMate 3000 system (Dionex, USA) and a splitter system was used to achieve a flow rate of 100 μl min^−1. Analytes were eluted with a mobile phase consisting of water: formic acid (100:0.2 v/v) (phase A) and acetonitrile: formic acid (100:0.2 v/v) (phase B) in gradient elution mode for 77 min. […]
Samples were lysed in RIPA buffer (Cell signaling Technologies), then subjected to SDS-PAGE and transferred to a nitrocellulose membrane. […] We performed densitometric quantification using the ImageJ software (National Institutes of Health). […]

- ac-S565 signal in western blot of recombinant COX2 (COX2): strong ac-S565-positive signals
SMILES: CCCCCCCCCCCCC/C=C/[C@@H](O)[C@H](CO)NC(C)=O [N-AS, N-((2S,3R,E)-1,3-Dihydroxyoctadec-4-en-2-yl)acetamide]
- C14 radioactivity of COX2, acetylation assay (Fig 1h) (COX2 T564A): 226529 and 226073 and 226403 and 227396 and 226676 and 226952
